The record followed here is ChEMBL document CHEMBL1129122, “Synthesis and antimicrobial activity of 4-amino trinems” (1996).

Molecules are shown by their SMILES. In brackets after ≈: the same amount, converted by molar mass. A value given as a limit tells only on which side of the number the result lay.

Common to all, as to format: functional
One assay concerns Enterococcus faecalis. Put plainly: In vitro antibacterial activity against Enterococcus faecalis 850 strain.
For assay [1], the system named is Escherichia coli. Put plainly: In vitro antibacterial activity against Escherichia coli 1850 strain.
Assay [2] has as its system Staphylococcus aureus. Put plainly: In vitro antibacterial activity against Staphylococcus aureus 853 strain.
The test system of assay [3] is Escherichia coli. The assay can be described thus: In vitro antibacterial activity against Escherichia coli 1919 strain.
The test system of assay [4] is Staphylococcus aureus. The assay can be described thus: In vitro antibacterial activity against Staphylococcus aureus 663 strain.
The next assay deals with Pseudomonas aeruginosa. Put plainly: In vitro antibacterial activity against Pseudomonas aeruginosa 1911 strain.

In general, MIC refers to the least concentration at which growth counts as inhibited. Low values mean inhibition by little substance, high ones a need for much substance. Take `C[C@@H](O)[C@H]1C(=O)N2C(C(=O)O)=C3[C@H](CCC[C@@H]3N(C)C)[C@H]12`: the MIC is more than 32 µg/mL in the assay on Enterococcus faecalis; 2 µg/mL (≈ 6.79 µM) in the assay on Escherichia coli [1]; 0.25 µg/mL (≈ 0.849 µM) in the assay on Staphylococcus aureus [2]; 1 µg/mL (≈ 3.4 µM) with Escherichia coli [3]; 0.25 µg/mL (≈ 0.849 µM) in the assay with Staphylococcus aureus [4]; 8 µg/mL (≈ 27.2 µM) in the assay on Pseudomonas aeruginosa.

In the case of `CN[C@H]1CCC[C@H]2C1=C(C(=O)O)N1C(=O)[C@H]([C@@H](C)O)[C@@H]21`, the MIC with Enterococcus faecalis was 16 µg/mL (≈ 57.1 µM); in the assay on Escherichia coli [1] it was 2 µg/mL (≈ 7.13 µM); in the assay on Staphylococcus aureus [2] it was 0.5 µg/mL (≈ 1.78 µM); against Escherichia coli [3], 0.5 µg/mL (≈ 1.78 µM); against Staphylococcus aureus [4], 0.25 µg/mL (≈ 0.892 µM); against Pseudomonas aeruginosa, 4 µg/mL (≈ 14.3 µM).

Take `CO[C@H]1CCC[C@H]2C1=C(C(=O)[O-])N1C(=O)[C@H]([C@@H](C)O)[C@@H]21.[Na+]` [SANFETRINEM SODIUM]: the minimum inhibitory concentration (MIC) was 1 µg/mL in the assay on Enterococcus faecalis; 0.5 µg/mL with Escherichia coli [1]; 0.25 µg/mL with Staphylococcus aureus [2]; 0.5 µg/mL against Escherichia coli [3]; 0.25 µg/mL in the assay on Staphylococcus aureus [4]; more than 32 µg/mL with Pseudomonas aeruginosa.

Regarding `C[C@@H](O)[C@H]1C(=O)N2C(C(=O)O)=C3[C@@H](N)CCC[C@@H]3[C@H]12`, the MIC with Enterococcus faecalis is 16 µg/mL (≈ 60.1 µM); against Escherichia coli [1] it was 1 µg/mL (≈ 3.76 µM); with Staphylococcus aureus [2], 0.25 µg/mL (≈ 0.939 µM); with Escherichia coli [3], 0.5 µg/mL (≈ 1.88 µM); in the assay with Staphylococcus aureus [4], 0.25 µg/mL (≈ 0.939 µM); against Pseudomonas aeruginosa it was 4 µg/mL (≈ 15 µM).

Consider `C[C@@H](O)[C@H]1C(=O)N2C(C(=O)O)=C3[C@@H](NC4CCCC4)CCC[C@@H]3[C@H]12`, for which the MIC against Enterococcus faecalis was 32 µg/mL (≈ 95.7 µM); against Escherichia coli [1], 8 µg/mL (≈ 23.9 µM); against Staphylococcus aureus [2] it was 4 µg/mL (≈ 12 µM); against Escherichia coli [3], 32 µg/mL (≈ 95.7 µM); in the assay with Staphylococcus aureus [4] it was 8 µg/mL (≈ 23.9 µM); with Pseudomonas aeruginosa, 32 µg/mL (≈ 95.7 µM).
